Here are results for five compounds from patent US4299822A, “N-Trifluoroacetyladriamycin-14-O-hemiglutarate and -hemiadipate and therapeutic compositions containing same” (Sidney Farber Cancer Institute, Inc., priority 1980, dated 1981).

SMILES strings stand for the structures. ≈ marks a conversion by molar mass, not a printed value. Where two headings read alike, the source gives them in different places. Bounds are passed on as bounds.

For series [1] the following is noted: clinical use; cited from earlier work.
For a further series, the system named is CCRF-CEM cells. Put plainly: growth inhibition of CCRF-CEM cell line in culture. The following applies: Homo sapiens, read-out: ID50 (dose required to inhibit growth of the cultures by 50% relative to control). The format is cell-based. From the text:
The in vitro assays measure the growth inhibiting activity of the materials against the CCRF-CEM cell line in culture. […] The in vivo evaluations were made by preparing a 0.2 to 0.7% by weight solution of the active agent in a formulation consisting of 10% by volume of each polyethoxylated castor oil and ethanol in saline and injecting the dosage intraperitoneally. The evaluations were made of the antitumor activity against the murine P388 and murine L1210 leukemias in BDF1 male mice according to standard National Cancer Institute protocols as set forth by Geran et al., Cancer Chemotherap. Rep., Part 3, Volume 3, pages 1 et seq.

Another series has as its system murine P388 leukemia. Put plainly: in vivo antitumor activity against murine P388 leukemia, ip qd 1-4. Also noted: species or system mouse (BDF1 male mice). How it is done: (§1) The toxicity and therapeutic effectiveness of the new compounds and active agents of the present invention are shown by in vitro assays and by in vivo evaluations in mice. The in vitro assays measure the growth inhibiting activity of the materials against the CCRF-CEM cell line in culture. The cell line was derived from the peripheral blood of a child with lymphoblastic leukemia as described by Foley et al., Cancer, Volume 18, page 522 et seq. (1965), and the assays were carried out by the procedure of Foley and Lazarus, Biochem. Pharmacol., Volume 16, pages 659 et seq. (1967), the results being reported in terms of the dose in micromoles per liter required to inhibit growth of the cultures by 50% relative to control cultures to which no drug had been added (ID50). The in vivo evaluations were made by preparing a 0.2 to 0.7% by weight solution of the active agent in a formulation consisting of 10% by volume of each polyethoxylated castor oil and ethanol in saline and injecting the dosage intraperitoneally. The evaluations were made of the antitumor activity against the murine P388 and murine L1210 leukemias in BDF1 male mice according to standard National Cancer Institute protocols as set forth by Geran et al., Cancer Chemotherap. Rep., Part 3, Volume 3, pages 1 et seq. (1972) , except that a qd 1-4 schedule was used in place of qd 1-9 in order to conserve materials.
(§2) Optimal dosage was determined by testing doses which were at several multiples of 10 milligrams/kilogram of body weight. Some effectiveness can be observed at dosages ranging from 30 to 70 milligrams/kilogram of body weight, depending upon the particular compound employed.
The following table summarizes the in vivo antitumor activity of the same compounds as those in Table I, evaluated against murine P388 leukemia as described above. All compounds were administered intraperitoneally, adriamycin in clinical formulation (1 part adriamycin plus 5 parts lactose, in 0.9% saline), the other compounds in 10% Emulphor EL-620, 10% ethanol, 80% isotonic saline.

The nature of series [2]: cytotoxicity or anti-tumor activity (general statement). The settings on record: for cytotoxicity or anti-tumor activity relative to adriamycin: vs adriamycin; for cytotoxicity or anti-tumor activity relative to N-trifluoroacetyladriamycin-14-valerate: vs valerate. The method, then: as §1
The nature of the next series: solubility in water. The following applies: for solubility: phosphate buffer, pH 7.4, aqueous buffer; for solubility in water relative to N-trifluoroacetyladriamycin-14-valerate: physiological pH in the range pH 7.2-7.5.
Another series relates to murine L1210 leukemia. Put plainly: in vivo antitumor activity against L1210 leukemia, ip days 1-4. Also noted: species or system mouse (BDF1 male mice). How it is done: as §1, §2
All compounds were administered intraperitoneally; in tests (1) and (2), the compounds were in 10% Emulphor EL-620, 10% ethanol, and 80% isotonic saline. In test (3) the compound was in aqueous buffer containing monobasic potassium phosphate and sodium hydroxide (0.05 M), pH 7.40: […]

Series [3] can be described thus: hydrolytic stability in aqueous buffers, TLC quantification of N-trifluoroacetyladriamycin. It counts as physicochemical. The settings on record: for degraded at 24 h: aqueous buffer, dark, read-out: Percent hydrolyzed; for resistance to hydrolysis: aqueous solutions. From the text:
The results were as follows:

A further series has as its system mice. Put plainly: toxicity to mice. The format is in vivo, mouse. The method, then:
as §1

The conditions of series [4]: steroid administration to patients with vehicle-associated chest pain; cited from earlier work.
Setting [5] is: each dose 1.0 mg/kg ip, clinical formulation (lactose, 0.9% saline).
Setting [6] is: each dose 2.0 mg/kg ip, clinical formulation (lactose, 0.9% saline).
The mark [7] stands for this setting: each dose 3.0 mg/kg ip, clinical formulation (lactose, 0.9% saline).
[8] abbreviates: each dose 4.0 mg/kg ip, clinical formulation (lactose, 0.9% saline).
Setting [9] is: each dose 5.0 mg/kg ip, clinical formulation (lactose, 0.9% saline).
The mark [10] stands for this setting: 50.0 mg/kg/d × 4 ip, 10% Emulphor EL-620, 10% ethanol, 80% isotonic saline.
[11] abbreviates: 60.0 mg/kg/d × 4 ip, 10% Emulphor EL-620, 10% ethanol, 80% isotonic saline.
[12] abbreviates: test (3): 50.0 mg/kg/d × 4 ip, aqueous phosphate buffer (0.05 M) pH 7.40.
[13] abbreviates: test (3): 60.0 mg/kg/d × 4 ip, aqueous phosphate buffer (0.05 M) pH 7.40.
Where [14] appears, read: each dose 40.0 mg/kg ip, 10% Emulphor EL-620, 10% ethanol, 80% saline.
[15] abbreviates: each dose 50.0 mg/kg ip, 10% Emulphor EL-620, 10% ethanol, 80% saline.
Setting [16] is: each dose 60.0 mg/kg ip, 10% Emulphor EL-620, 10% ethanol, 80% saline.
The mark [17] stands for this setting: each dose 70.0 mg/kg ip, 10% Emulphor EL-620, 10% ethanol, 80% saline.
Where [18] appears, read: each dose 30.0 mg/kg ip, 10% Emulphor EL-620, 10% ethanol, 80% saline.

On to `COc1cccc2c1C(=O)c1c(O)c3c(c(O)c1C2=O)C[C@@](O)(C(=O)CO)C[C@@H]3O[C@H]1C[C@H](N)[C@H](O)[C@H](C)O1` [Adriamycin], for which, in series [1], the “toxic side-effects (dose-limiting)” value was “acute myelosuppression and cumulative dose-related cardiac toxicity”. For the same compound, in the series with CCRF-CEM cells (CCRF-CEM), the IC50 is 50 nM. The “% ILS (percent increase in life span relative to untreated controls)” value with murine P388 leukemia (setting [5]) was 81%; in the series with murine P388 leukemia (setting [6]) it was 90%; with murine P388 leukemia (setting [7]), 181%; with murine P388 leukemia (setting [8]) it was 63%; with murine P388 leukemia (ip, 5 mg/kg), -19%. The “No. alive on d 30” value with murine P388 leukemia (setting [5]) is on record as 0/7; with murine P388 leukemia (setting [6]), 2/7; in the series with murine P388 leukemia (setting [7]) it was 4/7; in the series with murine P388 leukemia (setting [8]), 0/7; with murine P388 leukemia (setting [9]), 0/7. The “Survival, Median day of death (range)” value is recorded as 20.0 (18-27) day in the series with murine P388 leukemia (setting [5]); 21.0 (20-32) day in the series with murine P388 leukemia (setting [6]); 31.0 (23-36) day in the series on murine P388 leukemia (setting [7]); 18.0 (7-28) day in the series on murine P388 leukemia (setting [8]); 9.0 (7-27) day with murine P388 leukemia (setting [9]). The “No. alive on d 60” value with murine P388 leukemia (setting [6]) was 1/7; in the series with murine P388 leukemia (setting [7]) it was 2/7.
With `COc1cccc2c1C(=O)c1c(O)c3c(c(O)c1C2=O)CC(O)(C(=O)COC(=O)CCCCC(=O)O)CC3OC1CC(NC(=O)C(F)(F)F)C(O)C(C)O1` (centres unmarked) [N-Trifluoroacetyladriamycin-14-O-hemiadipate], in series [2], the “cytotoxicity or anti-tumor activity relative to adriamycin” value is “greater than that of adriamycin”. The “cytotoxicity or anti-tumor activity relative to N-trifluoroacetyladriamycin-14-valerate” value in [2] is “approximately equal to that of N-trifluoroacetyladriamycin-14-valerate”. Moreover, in the series with CCRF-CEM cells (CCRF-CEM cells, in vitro), the IC50 was 310 nM. In “solubility in water”, the concentration in solution (solubility) came to 60 mg/mL (≈ 78.2 mM). In addition, the “solubility in water relative to N-trifluoroacetyladriamycin-14-valerate” value in “solubility in water” is “many times greater than that of N-trifluoroacetyladriamycin-14-valerate”. In addition, the “% ILS (percent median increase in life span relative to untreated controls, calculated as of day 50)” value in the series with murine L1210 leukemia (setting [10]), with murine L1210 leukemia (setting [11]), with murine L1210 leukemia (setting [12]) and with murine L1210 leukemia (setting [13]) was greater than 456% each time. Also, the “No. alive on d 50” value in the series with murine L1210 leukemia (setting [10]) is reported as 7/7; in the series on murine L1210 leukemia (setting [11]), 6/7; in the series with murine L1210 leukemia (setting [12]) it was 5/7; in the series on murine L1210 leukemia (setting [13]), 7/7. In addition, in the series with murine L1210 leukemia (ip), the “prolonging the survival of mice bearing the L1210 leukemia” value is recorded as “highly effective in prolonging the survival of mice bearing the L1210 leukemia”. The degraded at 24 h was determined as 0% in [3] (pH 7.4, pH 7.40, 4° C.); 0.5% in series [3] (pH 7.4, pH 7.40, 27° C.); 0.3% in series [3] (pH 8, pH 8.00, 4° C.); 1% in series [3] (pH 8, pH 8.00, 27° C.); 0.5% in series [3] (pH 9, pH 9.00, 4° C.). Also, in series [3], the resistance to hydrolysis entry is “excellent resistance to hydrolysis”. Besides, in the series with mice, the “toxicity to mice relative to adriamycin or daunomycin” value was “significantly less toxic to mice than adriamycin or daunomycin”. The “No. alive on d 30” value in the series with murine P388 leukemia (setting [14]) is on record as 6/7; in the series with murine P388 leukemia (setting [15]) it was 6/7; with murine P388 leukemia (setting [16]), 6/7; with murine P388 leukemia (setting [17]) it was 7/7. For the same compound, the “No. alive on d 60” value in the series on murine P388 leukemia (setting [14]) was 6/7; in the series with murine P388 leukemia (setting [15]) it was 5/7; with murine P388 leukemia (setting [16]), 6/7; in the series with murine P388 leukemia (setting [17]) it was 7/7. The “Survival, day of death (range only, no median)” value with murine P388 leukemia (setting [14]) was 25 days; with murine P388 leukemia (setting [15]), 23,45 day; in the series on murine P388 leukemia (setting [16]) it was 24,93 day; in the series with murine P388 leukemia (setting [17]) it was 61 to 77 days.
As to `COc1cccc2c1C(=O)c1c(O)c3c(c(O)c1C2=O)CC(O)(C(=O)COC(=O)CCCC(=O)O)CC3OC1CC(NC(=O)C(F)(F)F)C(O)C(C)O1` (centres unmarked) [N-Trifluoroacetyladriamycin-14-O-hemiglutarate], in series [2], the “cytotoxicity or anti-tumor activity relative to adriamycin” value is recorded as “greater than that of adriamycin”. In addition, the “cytotoxicity or anti-tumor activity relative to N-trifluoroacetyladriamycin-14-valerate” value in [2] was “approximately equal to that of N-trifluoroacetyladriamycin-14-valerate”. Besides, the IC50 in the series on CCRF-CEM cells (CCRF-CEM cells, in vitro) came out at 280 nM. Moreover, the concentration in solution in “solubility in water” (solubility) was 65 mg/mL (≈ 86.2 mM). In “solubility in water”, the “solubility in water relative to N-trifluoroacetyladriamycin-14-valerate” value is listed as “many times greater than that of N-trifluoroacetyladriamycin-14-valerate”. Also, the degraded at 24 h in series [3] (pH 7.4, pH 7.40, 4° C.) is 0%; in [3] (pH 7.4, pH 7.40, 27° C.), 1%; in [3] (pH 9, pH 9.00, 4° C.) it was less than 0.5%; in series [3] (pH 9, pH 9.00, 27° C.), 3%. Further, the resistance to hydrolysis entry in series [3] is recorded as “excellent resistance to hydrolysis”. In the series with mice, the “toxicity to mice relative to adriamycin or daunomycin” value is reported as “significantly less toxic to mice than adriamycin or daunomycin”. Besides, the “% ILS (percent increase in life span relative to untreated controls)” value stood at 81% in the series on murine P388 leukemia (setting [18]), 109% with murine P388 leukemia (setting [14]) and 172% in the series on murine P388 leukemia (setting [15]). Further, the “No. alive on d 30” value is 2/7 with murine P388 leukemia (setting [18]); 2/7 in the series with murine P388 leukemia (setting [14]); 3/7 in the series on murine P388 leukemia (setting [15]); 5/7 with murine P388 leukemia (setting [16]); 5/7 in the series on murine P388 leukemia (setting [17]). Besides, the “No. alive on d 60” value in the series with murine P388 leukemia (setting [18]) is given as 0/7; with murine P388 leukemia (setting [14]) it was 1/7; in the series with murine P388 leukemia (setting [15]), 2/7; with murine P388 leukemia (setting [16]), 4/7; with murine P388 leukemia (setting [17]), 4/7. Besides, the “Survival, Median day of death (range)” value is 20.0 (20-35) day in the series with murine P388 leukemia (setting [18]), 23.0 (20-35) day with murine P388 leukemia (setting [14]) and 30.0 (20-42) day with murine P388 leukemia (setting [15]). Besides, the “Survival, day of death (range only, no median)” value was 20,29 day in the series with murine P388 leukemia (setting [16]) and 25 to 36 days in the series with murine P388 leukemia (setting [17]).
With `COc1cccc2c1C(=O)c1c(O)c3c(c(O)c1C2=O)C[C@@](O)(C(C)=O)C[C@@H]3O[C@H]1C[C@H](N)[C@H](O)[C@H](C)O1` [daunorubicin], in series [1], the “toxic side-effects (dose-limiting)” value is “acute myelosuppression and cumulative dose-related cardiac toxicity”.
In the case of `C[C@]12CCC(=O)C=C1CC[C@@H]1[C@@H]2[C@@H](O)C[C@@]2(C)[C@H]1CC[C@]2(O)C(=O)COC(=O)CCC(=O)O` [hydrocortisone hemisuccinate], the “effect on chest pain symptom complex during valerate infusion” value in series [4] is recorded as “eliminated the symptom complex in those cases”.
